The conditions of data set [1]: dead/total animals; 22 at 25 mg/kg i.p., 5-fluorouracil at 22 mg/kg i.p., day 1-9.
For data set [2], the system named is Ehrlich ascites carcinoma (EAC) cells. The experiment in a line: In-vivo activity in Ehrlich solid tumor model. Details: species or system swiss mice. As to conditions: 22 at 25 mg/kg i.p., 5-fluorouracil at 22 mg/kg i.p., day 1-9.

Experimental findings from patent publication US10696688B2, “Fused pyrimidines as isoform selective phosphoinositide-3-kinase-alpha inhibitors and process for preparation thereof” (Council of Scientific and Industrial Research, priority 2015, dated 2020) are described below.

Molecules are shown by their SMILES.

As to `O=c1[nH]cc(F)c(=O)[nH]1` [5-Fluorouracil, reference compound], the Mortality in data set [1] is 0/7. Further, the “Day 13 % Tumor Growth Inhibition” value in data set [2] (day 13, versus saline control) was determined as 50.04%. In addition, the “Day 13 Avg. tumor weights” value in data set [2] (day 13) worked out at 929.42 mg.
